Reference: patent EP1312365A1, “Pteridinones for the treatment of erectile dysfunctions” (Jenapharm GmbH & Co. KG, priority 2001, dated 2003)

Legend:
[1] = tested on: cavernosalen glatten Muskulatur; experiment: Organ bath contraction study with corpus cavernosum strips (phenylephrine-induced contraction); parameters: species or system Kaninchen; settings: for Relaxation der kavernösen, glatten Muskulatur: Kaninchen, phenylephrine-precontracted tissue
Description: Männliche New Zealand White-Kaninchen (Gewicht: 2,5-3,0 kg) wurden mit CO2-Gas eingeschläfert. Das cavernöse Gewebe wurde beim Sezieren in eine HEPES-gepufferte Lösung (20°C, pH 7,4) eingebracht. Die oben liegende Skelettmuskulatur wurde vorsichtig entfernt, um nicht die darunterliegende Tunica albuginea zu beschädigen. Im proximalen Ende der Tunica wurde ein Schnitt ausgeführt, während sie distal erweitert wurde. Dann wurde das Corpus Cavernosum bilateral aus der Tunica herausgelöst.
Für menschliches Gewebe wurde das Verfahren zum Ernten von Gewebe vom Institutional Review Board for Human Studies am Boston University Medical Center genehmigt. Cavernöses Gewebe wurde von Patienten erhalten, die sich der Implantation einer Penisprothese zur Behandlung einer erektilen Dysfunktion unterzogen. Im Operationssaal wurden Biopsien der Corpora cavernosa sofort in eisgekühlte (4°C) physiologische Salzlösung gelegt und zum Labor transportiert. Gewebestreifen mit einer Größe von etwa 3 mm x 3mm x 10 mm wurden zugeschnitten und für Organbadstudien gemäß einem ähnlichen Verfahren wie dem nachfolgend beschriebenen präpariert.
Längsschnitte des Corpus cavernosum wurden in Organbäder gelegt, die folgendes (in mM) enthielten: 118 NaCI, 4,7 KCI, 1,2 KH2PO4, MgSO4, 24,9 NaCO3, 5,5 Glucose, 2,0 Na-Pyruvat und 2,0 CaCl2. Die Streifen cavernöser, glatter Muskulatur wurden mit 2 Gramm gestreckt und mit einem Gemisch von 95% O2 und 5% CO2 während zwei Stunden äquilibriert, bevor mit dem Versuchsverfahren begonnen wurde. Dann wurden die Gewebe an Kraftwandler (Grass FT03) angeschlossen. Die Spannungsmessungen wurden mit einem MP100-System und der AcqKnowledge-Software (Biopac) digital aufgezeichnet.
Die Gewebe wurden mit Indomethacin (10 µM) vorbehandelt, um Cyclooxygenaseeffekte zu beseitigen. Durch Zugabe von Phenylephrin (10 µM) zu den Organkammern wurden Kontraktionen induziert. Nachdem die Phenylephrin-induzierte Kontraktion einen dauerhaften Zustand erreicht hatte, wurde das tricyclische Pteridinon (Pt) (Fig. 1a und 1b) oder der Stickstoffoxid-Donor S-Nitroso-N-acetylpenicillamin (SNAP) zugegeben (Fig. 2).

[2] = Pharmacokinetic experiments, plasma levels after oral administration; type: in vivo; settings: species not given
[3] = tested on: Macaca fascicularis-Affen; experiment: Monkey model of male erectile dysfunction (intracavernous pressure, blood pressure); type: in vivo
[4] = tested on: PDE IV; experiment: PDE subtype profile: inhibition of isolated PDE isozyme; type: biochemical, Ratten; settings: PDE IV aus Rattenniere
Description: (§1) Die verschiedenen Formen cyclischer Nukleotidphosphodiesterasen (PDE) wurden mit üblichen Methoden isoliert. Die PDE-lsozyme wurden aus den folgenden Quellen isoliert: PDE I und PDE V aus Rinder-Aorta, PDE II aus dem linken Ventrikel von Ratten, PDE IV aus Rattenniere und PDE III aus menschlichen Plättchen.
(§2) Die PDE-Aktivität wurde in einem Reaktionsmedium gemessen, das 40 mM Tris-HCI (pH 8,0), 5 mM MgCl2, 1 mM Dithiothreitol und 0,2 µM [^3H] cyclisches GMP enthielt. Das tricyclische Pteridinon wurde in DMSO (2,5%) gelöst. Bei dieser DMSO-Konzentration wurde die Enzymaktivität zu etwa 10% inhibiert. Die IC50-Werte für das tricyclische Pteridinon wurden anhand von Dosis-Wirkungs-Kurven bestimmt, bei denen die Konzentration im Bereich von 1 nM bis 10 µM (ganze log-Inkremente) lag. Für jedes untersuchte PDE-Isozym wurden mindestens zwei IC50-Bestimmungen an verschiedenen Tagen durchgeführt.

[5] = tested on: Katzen; experiment: Cat model of male erectile dysfunction (intracavernous pressure, systemic blood pressure); type: in vivo
Description: Geschlechtsreife männliche Katzen (Körpergewicht 2,9-4,6 kg) wurden mit α-Chloralose (60 mg/kg i.m.) narkotisiert. Dann wurden Hartmansche Lösung und eine Dextroselösung bei […] über die antekubitale Vene infundiert. Die Beatmung wurde über eine an einen Tierventilator (Harvard Apparatus Ltd., Boston MA) angeschlossene Tracheotomie sichergestellt. Pancuroniumbromid (0,3 ml/kg) wurde als Muskelrelaxans infundiert. Nach Bedarf wurden zusätzliche Dosen von α-Chlorase und Pancuroniumbromid gegeben, um ein gleichbleibendes Anästhesie-Niveau beizubehalten.
In der inneren Carotid-Arterie wurde ein zentraler Katheter gelegt, um eine Arterienblut-Gasanalyse (ABGA) durchzuführen und den systemischen Blutdruck in der Arterie aufzuzeichnen. Eine 23 G-Nadel wurde in das Corpus cavernosum eingeführt, um die Veränderungen des intracavernösen Drucks (ICP) zu messen. Sowohl der systemische, arterielle Blutdruck als auch der ICP wurden mittels eines Druckwandlers (Gilson P23XL-1, physiologischer Druckwandler, Ohmeda, Kanada), der an einen Polygraphen (Grass Model 7D, Quincy, MA, USA) angeschlossen war, gemessen. Zur lokalen Injektion von Versuchsverbindungen wurde ein Zweig der inneren Pudendalarterie auf einer Seite mit einem länglichen Polyethylenschlauch (PE-10-Schlauch, Original-Innendurchmesser 0,25 mm, Außendurchmesser 0,76 mm) retrograd mikrokanüliert. Dann wurden zur Verabreichung der Wirkstoffe (jeweils 0,1 ml) in den Penis die übrigen Zweige, bis auf die Penisarterie, ligiert. Mit geeigneten Ventilator-Einstellungen (z.B. Tidalvolumen 10 ml/kg; Atmungsrate 15-20/Min.) wurde eine Normoxie (pH > 7,25, PO2 > 60 mmHg, PCO2 < 40 mmHg) erzeugt und mit ABGA und einem mit der ausgeatmeten Luft verbundenen Capnometer (Modell 2200, Traverse Medical Monitors, USA) überprüft. Um die Volumeneffekte von Lösungsmitteln zu beurteilen, wurden destilliertes Wasser und normale Kochsalzlösung intraarteriell infundiert. Intraarterielles Wasser und Kochsalzlösung hatten selbst bei einem Bolus keinen Effekt auf den intracavernösen Druck (ICP).
Die Lösungen des tricyclischen Pteridinon wurden unter Verwendung einer 1%igen 6N HCI- und einer 5%igen DMSO-Lösung hergestellt. Papaverin (50 mg) + Phentolamin (5 mg) (Bimix) wurde in 5 ml mit 5% DMSO/Rest Kochsalzlösung hergestellt. Jedes Arzneimittel wurde als Bolus von 0,1 ml und 0,05 ml heparinisierter Kochsalzlösung zum Spülen infundiert.
Der Grund-ICP, ΔICP (d.h. die reine Veränderung des Grund-ICP) und Veränderungen des systemischen Blutdrucks wurden nach der intraarteriellen Injektion aufgezeichnet. Alle Daten wurden mittels eines Student's t-Test beurteilt, wobei p<0,05 als signifikant galt. Die Daten priapischer Episoden wurden bei den Berechnungen ausgeschlossen.

[6] = tested on: PDE VI; experiment: PDE subtype profile: inhibition of isolated PDE isozyme; type: biochemical; settings: source of PDE VI not given
Description: as §2

[7] = target: T1, PDE V (Bos taurus, UniProt Q28156); experiment: as above; type: biochemical; settings: PDE V aus Rinder-Aorta
T1 construct: Die PDE-lsozyme wurden aus den folgenden Quellen isoliert; from tissue; host or cells: bovine aorta
Description: as §1, §2

[8] = target: T2, PDE III (Homo sapiens, UniProt Q14432); experiment: as above; type: biochemical; settings: PDE III aus menschlichen Plättchen
T2 construct: Die PDE-lsozyme wurden aus den folgenden Quellen isoliert; from tissue; host or cells: human platelets
Description: as §1, §2

[9] = tested on: PDE I; experiment: as above; type: biochemical; settings: PDE I aus Rinder-Aorta; 0,2 µM [3H] cyclisches GMP
Description: as §1, §2

[10] = tested on: Macaca fascicularis-Affen; experiment: Monkey model of male erectile dysfunction (intracavernous pressure, blood pressure); type: in vivo; settings: for Maximaler Druck / Mittlerer Druckanstieg: intracavernous bolus 0,5 ml, given after nitroprusside response returned to baseline
Description: Das tricyclische Pteridinon wurde Macaca fascicularis-Affen als intracavernöse Bolusinjektion (0,5 ml, mit 0,5 ml Kochsalzlösung-Flush) verabreicht. Die Auswirkungen auf den intracavernösen Druck wurden mitlaufend gemessen und mit denen des Stickstoffoxid-Donors Nitroprussid (SNP oder NP) verglichen. Stickstoffoxid induziert eine Erektion, indem es als Guanylatcyclase-Agonist wirkt.
Die abschließende Reihe der in vivo-Versuche an Affen untersuchte die Effekte des tricyclischen Pteridinon bei intravenöser Verabreichung (1 und 3 mg/kg) 15 Minuten vor der intracavernösen Injektion von Nitroprussid (10^-5 M). Diese Vorgehensweise wurde gewählt, um zu bestimmen, ob die "systemische Verabreichung" von tricyclischem Pteridinon die Nitroprussid-induzierte, erektile Reaktion wirksam verstärkt.

[11] = i.v. bolus injection 0,5 mg/Tier

T2 sequence (Q14432 whole entry): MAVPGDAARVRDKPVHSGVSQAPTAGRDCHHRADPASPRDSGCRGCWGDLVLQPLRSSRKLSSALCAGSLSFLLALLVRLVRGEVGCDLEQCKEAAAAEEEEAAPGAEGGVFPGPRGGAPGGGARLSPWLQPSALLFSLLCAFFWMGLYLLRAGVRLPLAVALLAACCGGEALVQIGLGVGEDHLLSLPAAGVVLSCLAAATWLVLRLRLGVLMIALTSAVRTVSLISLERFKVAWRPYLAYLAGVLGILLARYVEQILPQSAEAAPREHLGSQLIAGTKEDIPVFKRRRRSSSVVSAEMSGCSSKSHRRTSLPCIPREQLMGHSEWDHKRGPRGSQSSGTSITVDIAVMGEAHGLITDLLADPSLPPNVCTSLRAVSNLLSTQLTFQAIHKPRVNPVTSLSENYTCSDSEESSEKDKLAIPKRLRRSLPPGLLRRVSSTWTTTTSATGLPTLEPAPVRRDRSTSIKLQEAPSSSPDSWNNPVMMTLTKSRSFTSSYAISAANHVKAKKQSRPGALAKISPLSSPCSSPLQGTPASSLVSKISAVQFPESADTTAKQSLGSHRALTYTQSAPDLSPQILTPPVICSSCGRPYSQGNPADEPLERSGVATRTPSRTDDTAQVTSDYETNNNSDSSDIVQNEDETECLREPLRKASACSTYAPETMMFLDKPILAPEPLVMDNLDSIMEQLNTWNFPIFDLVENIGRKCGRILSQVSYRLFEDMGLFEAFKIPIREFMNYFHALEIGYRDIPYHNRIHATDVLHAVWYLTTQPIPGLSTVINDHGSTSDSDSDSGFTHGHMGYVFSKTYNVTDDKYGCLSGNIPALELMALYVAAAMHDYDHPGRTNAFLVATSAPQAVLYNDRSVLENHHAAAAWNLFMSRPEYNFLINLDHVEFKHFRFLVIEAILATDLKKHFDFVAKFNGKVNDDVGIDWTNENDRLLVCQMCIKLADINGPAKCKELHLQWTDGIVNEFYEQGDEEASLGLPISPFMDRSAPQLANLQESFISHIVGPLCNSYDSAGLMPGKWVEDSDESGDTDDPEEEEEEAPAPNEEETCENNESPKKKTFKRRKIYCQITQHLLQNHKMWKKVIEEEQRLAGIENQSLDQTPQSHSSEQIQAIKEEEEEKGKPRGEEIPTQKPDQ

## CC(=O)N[C@H](C(=O)O)C(C)(C)SN=O [SNAP, S-Nitroso-N-acetylpenicillamin, reference compound]
[1]; Fig. 2
  Relaxation der kavernösen, glatten Muskulatur: unmittelbare Relaxation

## CCc1nc(C)cn1-c1nc(C(C)C)c2[nH]c(=O)c3c(C)nc(CC)n3c2n1 [tricyclisches Pteridinon, 9-Ethyl-2-(2-ethyl-4-methyl-1H-imidazol-1-yl)-7-methyl-4-(2-propyl)imidazo[5,1-h]pteridin-6(5H)on]
[2]
  Zeit bis zu signifikanten Plasmamengen nach oraler Verabreichung: ≤ 30 Minuten
[3]; 1 mg/kg given simultaneously with nitroprusside
  Dauer des Nitroprussid-induzierten Anstiegs des cavernösen Drucks: verdoppelte
[3]; 3 mg/kg given simultaneously with nitroprusside
  Dauer des Nitroprussid-induzierten Anstiegs des cavernösen Drucks: nahezu verdreifachten
[4]
  IC50: 0.074 µM
[1]; Fig. 2
  Relaxation der kavernösen, glatten Muskulatur: unmittelbare Relaxation
[1]; Phenylephrin 10 µM, Indomethacin 10^-5 M, Fig. 1 (Kaninchen, and tissue of impotent patients), read-out: IC50-Wert für die Inhibierung der Phenylephrin-induzierten Kontraktion
  IC50: ~1 µM
[1]; in vitro model, Fig. 2
  Stärke im Vergleich zu SNAP: stärker
[5]; 0,1 mg/Tier
  Erektionen steif (visuelle Bestimmung): nicht als steif
[5]; higher doses (Fig. 3: 0,3 and 0,5 mg/Tier)
  Erektionen steif: steifen Erektion
[5]; [11]
  Dauer der vorübergehenden Spitzenabfälle des systemischen Arterienblutdrucks: ≤ 5 Minuten
  Spitzenabfälle des systemischen Arterienblutdrucks: 15,8 mmHg
[5]; local intra-arterial administration, 0,1 mg/Tier, p<0,01
  Anstieg des ICP: 5,5 mmHg
[5]; local intra-arterial injection, 0,1 ml bolus, initial dose-finding study
  Dosis, die den ICP erhöht: ≥ 0,0038 mg
[5]; local intra-arterial injection, Fig. 3
  ICP, Dosisabhängigkeit: erhöhte in dosisabhängiger Weise signifikant den ICP
[6]
  IC50: 0.056 µM
[7]
  IC50: 0.035 µM
[8]
  IC50: > 10 µM
[9]
  IC50: 0.0058 µM
[10]; Affen, given before administration of nitroprusside
  Anstieg des cavernösen Drucks: keinen anhaltenden Anstieg
[10]; Affen, i.v. 1 and 3 mg/kg, Fig. 5
  intracavernöser Druck nach systemischer Verabreichung: wirksam erhöht
[10]; Affen, i.v. administration, 1 and 3 mg/kg
  Blutdrucksenkung: 20-40 mmHg
[10]; Affen, 10^-4 Molar
  Maximaler Druck: 165 (1) cm H2O
  Mittlerer Druckanstieg: 62 (1) Δ cm H2O
[10]; Affen, 10^-5 Molar
  Maximaler Druck: 103 (3) cm H2O
  Mittlerer Druckanstieg: 51 (3) Δ cm H2O
[10]; Affen, 10^-6 Molar
  Maximaler Druck: 95 (2) cm H2O
  Mittlerer Druckanstieg: 41 (2) Δ cm H2O
[10]; one monkey, pretreatment 3 mg/kg followed by nitroprusside 10^-5 M i.c.
  Adverse finding after pretreatment: Priapismus
